Values of other authors in patent US20150231081A1, “DELAYED RELEASE POSACONAZOLE TABLETS” (CADILA HEALTHCARE LIMITED, priority 2014, published 2015).
Where two headings read alike, the source gives them in different places.

**Q.** What does the source list for `CC[C@@H]([C@H](C)O)n1ncn(-c2ccc(N3CCN(c4ccc(OC[C@@H]5CO[C@@](Cn6cncn6)(c6ccc(F)cc6F)C5)cc4)CC3)cc2)c1=O` [Posaconazole free base, 4-[4-[4-[4-[[(3R,5R)-5-(2,4-difluorophenyl)tetrahydro-5-(1H-1,2,4-triazol-1-ylmethyl)-3-furanyl]methoxy]phenyl]-1-piperazinyl]phenyl]-2-[(1S,2S)-1-ethyl-2-hydroxypropyl]-2,4-dihydro-3H-1,2,4-triazol-3-one]?
**A.** solubility (environments where the pH is about pH 6.4 or more basic): less than 1 microgram/mL; solubility (in stomach pH): approximately 0.8 mg/mL
